Test results published in patent publication EP0741749B1, “MERCURY BINDING POLYPEPTIDES AND N[…] THEREFOR” (priority 1994, dated 1995).

Tested on: binding of antibody secreted by hybridoma designated as 1F10 to immobilized glutathione-mercuric ion
Experiment: Competitive inhibition ELISA: inhibition of antibody binding by metal ions
Settings: culture fluid of 1F10; at the highest concentration (final range 10^-1 M to 10^-6 M); 100000 µM
Description: Various methods were used to confirm that the antibodies secreted by hybridomas 4A10 and 1F10 were specific to mercuric ions. If the antibody being secreted by these hybridomas were specific, it should be possible to inhibit binding of the antibody to glutathione-mercuric ions by incubation in the presence of various concentrations of mercuric chloride. This competitive inhibition assay was conducted with antibody-containing culture fluids from the parental hybridomas 4A10 and 1F10.
Metal ions at the indicated concentrations were incubated with culture fluid from the monoclonal antibody in an enzyme-linked immunosorbent assay ("ELISA") plate. The absorbance at 405 nm was determined for each sample, and the percent inhibition of each metal ion concentration was determined by the following formula: Percent inhibition=(A405 of inhibitor - A405 of neg. control)/(A405 of pos. control - A405 of neg. control) [formula]
Various other metals were assayed for inhibition of binding of the monoclonal antibodies to mercuric ion. […] The absorbance at 405 nm was determined for each sample, and the percent inhibition of each metal ion concentration was determined by the same formula used for Figure 1. […]
The negative control measured the binding of a dinitrophenol specific antibody to the antigen mentioned above in the presence of the corresponding metal ions. […]

## [Cl-].[Cl-].[Mg+2] [magnesium chloride]
  Percent inhibition: ~50%
